Data published in ChEMBL document CHEMBL1201862, “PubChem BioAssay data set” (2004).
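Exposure lasted 48 hours, with cells grown in 96-well plates and compounds tested at five concentrations. GI50 is the concentration that inhibits growth by half.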 Active and inactive are the calls of the source. Rule as the data show it: active = GI50 up to about 1.1 µM and inactive = higher.

How the values were obtained:
Assay in all cases: DTP human tumour cell line panel, 48 h
[1] = tested on: DU-145
[2] = tested on: Hs-578T
[3] = tested on: HCT-116
[4] = tested on: OVCAR-5
[5] = tested on: NCI-H23
[6] = tested on: UO-31
[7] = tested on: CAKI-1
[8] = tested on: HCT-15
[9] = tested on: HOP-92
[10] = tested on: TK-10
[11] = tested on: BT-549
[12] = tested on: RPMI-8226
[13] = tested on: A549
[14] = tested on: T47D
[15] = tested on: ACHN
[16] = tested on: UACC-62
[17] = tested on: UACC-257
[18] = tested on: NCI/ADR-RES
[19] = tested on: SF-539

Structure (SMILES) | GI50 [1] | GI50 [2] | GI50 [3] | GI50 [4] | GI50 [5] | GI50 [6] | GI50 [7] | GI50 [8] | GI50 [9] | GI50 [10] | GI50 [11] | GI50 [12] | GI50 [13] | GI50 [14] | GI50 [15] | GI50 [16] | GI50 [17] | GI50 [18] | GI50 [19]
Nc1c(S(N)(=O)=O)cc(S(N)(=O)=O)cc1S(N)(=O)=O | > 100 µM (inactive) | > 100 µM (inactive) | > 100 µM (inactive) | > 100 µM (inactive) | > 100 µM (inactive) | > 100 µM (inactive) | > 100 µM (inactive) | > 100 µM | > 100 µM (inactive) | > 100 µM (inactive) | > 100 µM (inactive) | > 100 µM (inactive) | > 100 µM (inactive) | > 100 µM (inactive) | > 100 µM (inactive) | > 100 µM (inactive) | > 100 µM (inactive) | > 100 µM (inactive) | 
CCCCCCCCC/C=C1/CC(CO)(COC(=O)c2ccccc2)OC1=O (configuration not stated) | 12.9 µM (inactive) | 3.69 µM (inactive) | 23.2 µM (inactive) | 12.2 µM (inactive) | 15 µM (inactive) | 13 µM (inactive) | 12.2 µM (inactive) | 16.3 µM | 1.61 µM (inactive) | 10.8 µM (inactive) | 14.1 µM (inactive) |  | 12.9 µM (inactive) | 11.5 µM (inactive) | 12.4 µM (inactive) | 14.7 µM (inactive) | 14.2 µM (inactive) | 15.5 µM (inactive) | 20.4 µM (inactive)
CN(c1c(Cl)cccc1Cl)S(=O)(=O)c1ccccc1[N+](=O)[O-] | > 100 µM (inactive) | > 100 µM (inactive) | > 100 µM (inactive) | > 100 µM (inactive) | > 100 µM (inactive) | > 100 µM (inactive) | > 100 µM (inactive) | > 100 µM |  | > 100 µM (inactive) | > 100 µM (inactive) | > 100 µM (inactive) | > 100 µM (inactive) | > 100 µM (inactive) | > 100 µM (inactive) | > 100 µM (inactive) | > 100 µM (inactive) | > 100 µM (inactive) | > 100 µM (inactive)
O=C(Nc1ccccc1)N(CCCCN(Cc1ccccc1)C(=O)Nc1ccccc1)Cc1ccccc1 | > 100 µM (inactive) | > 100 µM (inactive) | 30.1 µM (inactive) | > 100 µM (inactive) | > 100 µM (inactive) | 40 µM (inactive) | > 100 µM (inactive) | > 100 µM | > 100 µM (inactive) | > 100 µM (inactive) | > 100 µM (inactive) | > 100 µM (inactive) | 28.8 µM (inactive) | 25.9 µM (inactive) | > 100 µM (inactive) | > 100 µM (inactive) | > 100 µM (inactive) | > 100 µM (inactive) | 
O=C(Cn1c2ccc(Br)cc2c2nc3ccccc3nc21)N1CCOCC1 | > 100 µM (inactive) | 49.1 µM (inactive) | 50.2 µM (inactive) | > 100 µM (inactive) | 53 µM (inactive) | > 100 µM (inactive) | > 100 µM (inactive) | > 100 µM | 12.8 µM (inactive) | > 100 µM (inactive) | > 100 µM (inactive) | > 100 µM (inactive) | 98.4 µM (inactive) | 25.5 µM (inactive) | > 100 µM (inactive) | > 100 µM (inactive) | > 100 µM (inactive) | 47.9 µM (inactive) | 
O=C1CC(=O)n2cnc3cccc(c32)N1 | > 100 µM (inactive) | > 100 µM (inactive) | > 100 µM (inactive) | > 100 µM (inactive) | > 100 µM (inactive) | > 100 µM (inactive) | > 100 µM (inactive) | > 100 µM | > 100 µM (inactive) |  | > 100 µM (inactive) | > 100 µM (inactive) | > 100 µM (inactive) | > 100 µM (inactive) |  | > 100 µM (inactive) | > 100 µM (inactive) | > 100 µM (inactive) | > 100 µM (inactive)
